The values that follow come from patent US20150359794A1, “IMPAIRMENT OF THE LARGE RIBOSOMAL SUBUNIT PROTEIN RPL24 BY DEPLETION OR ACETYLATION” (Buck Institute for Research on Aging, priority 2014, published 2015).

In experiment [1] the test system is cyclin D1, survivin, and NBS1. Briefly: Western blot of cap (eIF4E)-dependently translated proteins. Format: cell-based, human. To be noted: SKBR3 cells. The protocol:
Since the translation-dependent checkpoint mechanism remains undefined, the impact of RPL24 depletion in a model human breast cancer cell line, SKBR3, sensitive to eIF4E-regulated and cap-dependent translation inhibition was evaluated. Two different RPL24-directed shRNA-expressing lentiviruses were used to decrease RPL24 protein expression by approximately 70% (FIG. 2a). […] Associated with RPL24 depletion and growth inhibition was a marked reduction in the expression of three different eIF4E-regulated and cap-dependent transcripts necessary for cell proliferation (75% reduction in cyclin D1), survival (46% reduction in survivin), and DNA repair and integrity (30% reduction in NBS1). Protein levels of two housekeeping genes not regulated by eIF4E, GAPDH and β-tubulin, were not affected by RPL24 depletion (FIG. 2a).
Cells are lysed in RIPA buffer (10 mM Tris-HCL (pH 8.0), 1 mM EDTA, 0.5 mM EGTA, 1% triton X-100, 0.1% sodium deoxycholate, 0.1% SDS, 140 mM NaCl, 20 mM NaF, Complete EDTA-free protease inhibitor tablets (Roche Diagnostics Corp., Basel, Switzerland) and the phosphatase inhibitor cocktail PhosSTOP (Roche)), the latter two as indicated by the manufacturer's protocol. Equal amounts of protein are diluted in 2× sample buffer. Immunoblots on PVDF (Polyvinyldene Fluoride) membranes are blocked with nonfat milk in tris-buffered saline with 0.05% tween-20 (TBST). The following antibodies are incubated with membranes in 5% nonfat milk in TBST: RPL24 (Proteintech, Chicago, Ill.), Cyclin D1, Rack1, RPL4 (Santa Cruz Biotechnology, Santa Cruz, Calif.), NBS1, GAPDH (EMD Millipore Corporation, Chicago, Ill.), Survivin, β-tubulin, acetyl-lysine, eIF6, acetyl-H2B, H2B, (Cell Signaling Technology, Boston, Mass.), acetyl-tubulin, tubulin (Sigma Aldrich (St. Louis, Mo.))
FIG. 2: RPL24 knockdown reduces breast cancer cell viability while inhibiting cap (eIF4E)-dependent expression of proliferation, survival and genome stability proteins. SKBR3 cells were infected with lentiviruses expressing a GFP control or RPL24-targeting shRNA. After one week of puromycin selection, cells were plated in 96-well plates for viability assays and lysates were taken in parallel for western blots. (a) Western blots were performed on lysates from an equal number of cells using antibodies toward the indicated proteins. (b) Viability assay readings were taken three hours after plating (day 0) and four days after plating (day 4). The day 4 results were normalized for plating efficiency using the day 0 values. Error bars represent three replicate samples.
FIG. 5: Like RPL24 knockdown, histone deacetylase inhibition reduces 80S assembly while increasing 60S retention of eIF6 and reduces expression of cap (eIF4)-dependently translated proteins (a,b) SKBR3 cells were treated with TSA (1 μM, 2 h). […]
A general note: Immunoblotting shows a protein as a band on a membrane.

Experiment [2] concerns RPL24. The experiment is described as follows: LC-MS/MS of RPL24 lysine acetylation (K27, K93) on 60S subunits and polysomes. Format: cell-based, human. As to conditions: SKBR3 cells, TSA 1 μM, 2 h. The protocol: Mass spectrometry studies were performed to identify sites of lysine (K) acetylation within RPL24 induced by histone deacetylase inhibition. Continuous and discontinuous sucrose gradient fractionations were performed to isolate 60S subunits and total polysomes respectively. Polyacrylamide gel electrophoresis was then performed on 60S and polysome samples and RPL24-containing bands were excised, trypsin digested, and subjected to mass spectrometry (LC-MS/MS) (FIG. 6a). Among several detected acetylated RPL24 peptides, two were increased by TSA treatment; TDGKacVFQFLNAK (acetyl-K27) (SEQ ID NO:1) and AITGASLADIM*AKacR (acetyl-K93) (SEQ ID NO:2), where the internal lysines in both peptides are N-acetylated (Kac). As the MS experiments of the 60S polysome were performed after in-gel digestion the methionine residue of the second peptide was predominantly oxidized (M*=M+16), as commonly observed during SDS PAGE processing. In independent, in-solution digestion experiments, the corresponding non-oxidized form of acetylated peptide AITGASLADIMAKacR (SEQ ID NO:3) with correlating MS/MS fragmentation pattern was identified. Representative spectra are shown for TDGKacVFQFLNAK (acetyl-K27) (SEQ ID NO:1) and AITGASLADIM*AKacR (acetyl-K93) (SEQ ID NO:2)) (FIG. 11a,b). In 3 biological replicate experiments, the amount of K27-acetylated RPL24, normalized to total protein concentration within the 60S subunit, was increased at least 2-fold within 2 h of TSA treatment. […] Given the proximity of the T. thermophilia RPL24 K26 site (that resides in a homologous region to human K27) to eIF6 (FIG. 7a), these findings implicate involvement of the TSA induced acetylation of RPL24 at K27 in preventing 40S-60S subunit joining and 60S retention of eIF6.
To prepare polysome samples for mass spectrometry, cells are treated with a histone deacetylase inhibitor and polysome pellets are prepared using a discontinuous sucrose gradient as described above. Protein concentration is determined using the Pierce BCA Protein Assay Kit (Thermo Scientific) and equal amount of protein are trypsin digested. Acetyl-lysine immunoprecipitations are carried out on resultant peptides using an antibody from Cell Signaling Technology. Acetyl-proteins are then eluted, extracted, and desalted.
To determine the acetylation status of 60S subunit proteins, cells are treated with histone deacetylase inhibitor and polysome profiles are performed as described above. The four fractions representing the 60S subunit are identified via western blots for Rack1 and RPL24. […]
Three biological replicates of polysome or 60S samples are then analyzed by LC-MS/MS using a quadrupole time-of-flight (QqTOF) TripleTOF 5600 mass spectrometer (AB SCIEX, Dublin, Calif.) coupled to an Eksigent (Dublin, Calif.) nanoLC Ultra, 2D plus. […]

`CC(/C=C/C(=O)NO)=C\[C@@H](C)C(=O)c1ccc(N(C)C)cc1` [TSA, trichostatin-A]: the “cyclin D1 levels” value in experiment [1] (8 h treatment) is recorded as “reduced”. Further, in experiment [1] (24 h treatment), the “expression of NBS1 relative to GAPDH and β-tubulin” value is reported as “reduced”; the “expression of cyclin D1 relative to GAPDH and β-tubulin” value is “reduced”; the “expression of survivin relative to GAPDH and β-tubulin” value is recorded as “reduced”. Also, in experiment [2], the “RPL24 K93 acetylation within the 60S subunits” value was “not significantly changed”, the “induction of K93 acetylation within RPL24 associated with polysomes” value worked out at 2.5 fold and the “induction of RPL24 K27 acetylation within polysomes” value is recorded as “no significant induction”. Besides, the “increase of K27-acetylated RPL24 within the 60S subunit, normalized to total protein” value in experiment [2] (3 biological replicates) is “at least 2 fold”.
